Assays:
[1] = biological target: T1, D(2) dopamine receptor (Homo sapiens, UniProt P14416); experiment: Displacement of [3H]-YM 09151 from D2 receptor
[2] = biological target: T2, Adrenergic receptor alpha-1 (Rattus norvegicus, UniProt P15823+P23944+P43140); experiment: Displacement of [3H]prazosin from alpha-1 adrenergic receptor of rat brain homogenate
T2 sequence (P15823 whole entry): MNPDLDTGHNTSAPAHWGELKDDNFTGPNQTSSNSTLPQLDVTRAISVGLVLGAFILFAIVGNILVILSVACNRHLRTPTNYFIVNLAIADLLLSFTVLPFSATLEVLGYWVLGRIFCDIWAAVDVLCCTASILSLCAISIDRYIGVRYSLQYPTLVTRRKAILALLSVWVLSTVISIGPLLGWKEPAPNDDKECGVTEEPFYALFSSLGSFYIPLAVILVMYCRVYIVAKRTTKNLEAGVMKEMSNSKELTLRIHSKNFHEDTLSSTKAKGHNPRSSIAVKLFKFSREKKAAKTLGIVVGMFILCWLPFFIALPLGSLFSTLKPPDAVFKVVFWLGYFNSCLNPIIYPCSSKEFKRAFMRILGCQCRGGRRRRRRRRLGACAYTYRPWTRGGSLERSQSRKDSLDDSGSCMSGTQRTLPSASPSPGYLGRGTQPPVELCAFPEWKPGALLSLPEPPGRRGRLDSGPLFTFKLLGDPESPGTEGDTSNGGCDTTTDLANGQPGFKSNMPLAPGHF
T2 sequence (P23944 whole entry): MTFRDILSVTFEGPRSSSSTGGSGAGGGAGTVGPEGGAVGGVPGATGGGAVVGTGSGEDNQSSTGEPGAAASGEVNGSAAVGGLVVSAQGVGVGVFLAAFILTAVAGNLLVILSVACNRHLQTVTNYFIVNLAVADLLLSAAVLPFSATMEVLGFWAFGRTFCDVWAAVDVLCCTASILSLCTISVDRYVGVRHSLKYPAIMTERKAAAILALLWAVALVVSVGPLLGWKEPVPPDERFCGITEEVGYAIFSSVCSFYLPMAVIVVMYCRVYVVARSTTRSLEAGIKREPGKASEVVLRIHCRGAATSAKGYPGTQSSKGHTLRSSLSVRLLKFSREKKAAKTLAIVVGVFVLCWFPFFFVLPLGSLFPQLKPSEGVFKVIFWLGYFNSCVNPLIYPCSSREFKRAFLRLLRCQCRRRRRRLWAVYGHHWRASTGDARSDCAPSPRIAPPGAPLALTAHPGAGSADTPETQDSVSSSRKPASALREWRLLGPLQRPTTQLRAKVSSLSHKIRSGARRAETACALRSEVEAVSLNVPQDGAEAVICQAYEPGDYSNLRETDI
T2 sequence (P43140 whole entry): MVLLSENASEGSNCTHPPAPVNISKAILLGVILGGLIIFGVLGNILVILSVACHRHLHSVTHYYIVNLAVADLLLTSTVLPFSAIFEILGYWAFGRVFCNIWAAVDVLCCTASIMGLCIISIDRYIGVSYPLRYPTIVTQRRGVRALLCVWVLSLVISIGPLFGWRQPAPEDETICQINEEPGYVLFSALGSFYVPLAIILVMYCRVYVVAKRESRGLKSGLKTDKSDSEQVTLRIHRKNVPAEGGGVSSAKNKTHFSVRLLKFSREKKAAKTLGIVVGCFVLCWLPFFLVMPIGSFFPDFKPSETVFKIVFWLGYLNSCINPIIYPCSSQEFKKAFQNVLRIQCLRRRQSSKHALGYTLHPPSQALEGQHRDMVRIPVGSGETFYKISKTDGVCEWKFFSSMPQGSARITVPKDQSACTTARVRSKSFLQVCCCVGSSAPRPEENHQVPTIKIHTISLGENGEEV

[3] = biological target: T3, D(4) dopamine receptor (Homo sapiens, UniProt P21917); experiment: Displacement of [3H]-YM 09151 from D4 receptor
T3 sequence (P21917 whole entry): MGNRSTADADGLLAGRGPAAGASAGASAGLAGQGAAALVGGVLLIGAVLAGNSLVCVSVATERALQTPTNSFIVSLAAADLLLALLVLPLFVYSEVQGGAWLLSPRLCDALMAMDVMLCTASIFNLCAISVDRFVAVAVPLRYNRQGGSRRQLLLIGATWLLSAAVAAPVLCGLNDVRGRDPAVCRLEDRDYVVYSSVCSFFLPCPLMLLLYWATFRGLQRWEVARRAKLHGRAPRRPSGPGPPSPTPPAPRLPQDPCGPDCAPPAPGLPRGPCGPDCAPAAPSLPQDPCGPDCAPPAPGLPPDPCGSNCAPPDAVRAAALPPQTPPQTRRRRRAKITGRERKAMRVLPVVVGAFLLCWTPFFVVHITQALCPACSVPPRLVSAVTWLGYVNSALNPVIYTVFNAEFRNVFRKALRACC

[4] = biological target: T3, D(4) dopamine receptor; experiment: D4 receptor functional activity was measured inhibition of quinpirole stimulated [35S]GTP-gamma-S binding from cell membranes.
[5] = biological target: T1, D(2) dopamine receptor; experiment: D2 receptor functional activity was measured through reversal of quinpirole inhibited, forskolin stimulated cAMP production from whole cells

T1 sequence (P14416 whole entry): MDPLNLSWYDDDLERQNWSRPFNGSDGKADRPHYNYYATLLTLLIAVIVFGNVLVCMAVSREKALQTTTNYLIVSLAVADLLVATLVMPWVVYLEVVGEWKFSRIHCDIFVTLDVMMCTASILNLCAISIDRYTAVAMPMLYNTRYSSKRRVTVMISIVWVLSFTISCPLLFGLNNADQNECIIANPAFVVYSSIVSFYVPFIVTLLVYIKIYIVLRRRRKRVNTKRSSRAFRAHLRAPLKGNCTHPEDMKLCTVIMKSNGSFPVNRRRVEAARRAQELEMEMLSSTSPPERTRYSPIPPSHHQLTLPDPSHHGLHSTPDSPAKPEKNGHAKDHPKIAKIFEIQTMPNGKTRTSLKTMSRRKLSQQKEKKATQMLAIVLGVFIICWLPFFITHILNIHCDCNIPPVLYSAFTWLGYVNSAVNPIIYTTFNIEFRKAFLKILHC

A Ki [1] of 139 nM and a Ki [2] of 1000 nM were found for `CC1Cc2cccc3c2N1C(=O)C(N1CCN(Cc2ccc(Cl)cc2)CC1)CC3` (configuration not stated) in this work.
A Ki [1] of 26 nM, a Ki [3] of 10 nM and a Ki [2] of 1000 nM were found for `Cc1ccc(CN2CCN(C3CCc4cccc5c4N(C3=O)C(C)C5)CC2)cc1` (configuration not stated) in this work.
A Ki [2] of 1265 nM was found for `CCN1C(=O)C(N2CCN(Cc3ccc(Cl)cc3)CC2)Cc2ccccc21` (configuration not stated) in this work.
A Ki [1] of 209 nM and a Ki [2] of 1361 nM were found for `Cc1ccc(CN2CCN(C3CCc4cccc5c4N(CC5)C3=O)CC2)cc1` (configuration not stated) in this work.
A Ki [1] of 952 nM, a Ki [3] of 34 nM and a Ki [2] of 653 nM were found for `COc1cc(C)ccc1CN1CCN(C2CCc3cccc4c3N(C2=O)C(C)(C)C4)CC1` (configuration not stated) in this work.
A Ki [1] of 165 nM, a Ki [3] of 12 nM and a Ki [2] of 490 nM were found for `Cc1ccc(CN2CCN(C3CCc4cccc5c4N(C3=O)C(C)(C)C5)CC2)cc1` (configuration not stated) in this work.
A Ki [1] of 116 nM, a Ki [4] of 3 nM and a Ki [5] of 62 nM were found for `O=C1C(N2CCN(Cc3ccc(Cl)cc3)CC2)CCc2cccc3c2N1CC3` (configuration not stated) in this work. It also gave a Ki [3] of 5 nM and a Ki [2] of 2284 nM.
A Ki [2] of 2678 nM was found for `CCN1C(=O)C(N2CCN(Cc3ccc(Cl)cc3)CC2)CCc2ccccc21` (configuration not stated) in this work.
A Ki [2] of 1735 nM was found for `CC1(C)Cc2cccc3c2N1C(=O)C(N1CCN(Cc2ccc(Cl)cc2)CC1)CC3` (configuration not stated) in this work.
A Ki [1] of 313 nM, a Ki [3] of 65 nM and a Ki [2] of 983 nM were found for `COc1ccc(C)cc1CN1CCN(C2CCc3cccc4c3N(C2=O)C(C)(C)C4)CC1` (configuration not stated) in this work.
A Ki [1] of 220 nM, a Ki [3] of 29 nM and a Ki [2] of 1056 nM were found for `COc1ccc(Cl)cc1CN1CCN(C2CCc3cccc4c3N(C2=O)C(C)(C)C4)CC1` (configuration not stated) in this work.

Reference: ChEMBL document CHEMBL1136593, “Design, synthesis, and discovery of 5-piperazinyl-1,2,6,7-tetrahydro-5H-azepino[3,2,1-hi]indol-4-one derivatives: a novel series of mixed dopamine D2/D4 receptor antagonist” (Bioorg Med Chem Lett, 2003)
